Where two headings read alike, the source gives them in different places.

Data on 2 compounds can be found in patent publication US8299020B2, “Antimicrobial peptides and methods of their use” (The Ohio State University Research Foundation, priority 2006, dated 2012).

The nature of one data set: solubility in water. It counts as physicochemical. The conditions noted are these: neutral water.
The subject of a further data set is Pseudomonas aeruginosa. The conditions noted are these: background statement; cited from earlier work.
For the next data set, the system named is Acinetobacter baumannii. The settings on record: background statement; cited from earlier work.
In data set [1] the test system is gram-negative bacteria. The conditions noted are these: background statement; cited from earlier work.
Data set [2] has as its system gram-negative bacteria. Nature of the data set: bioassay of activity against gram-negative bacteria. Type of data set: cell-based. The protocol:
Antimicrobial activity determination. A qualitative and quantitative bioassay for antimicrobial potency was done using the spot-on-lawn method. An indicator lawn was prepared by pouring 10 ml soft agar (seeded with 200 μl overnight indicator culture) onto tryptose agar as a basal medium, in a petri dish. Escherichia coli K-12 and Lactobacillus plantarum ATCC 8014 were generally used as the gram-negative and gram-positive sensitive indicators, respectively, but other bacteria were tested to determine the OSY-DF antimicrobial spectrum (Table 1). For qualitative tests, aliquots (10 μl) of cell-free culture supernatant (pH 6.5) were spotted on indicator lawns, and the plates were incubated overnight for inhibition area observation. A clear inhibition area of ≧3 mm in diameter was recorded as positive. For the quantitative measurements, the cell-free culture supernatant was twofold serially diluted and dilutions were spotted onto the indicator lawn as just described. Antimicrobial activity was expressed in AU/ml; these values are the reciprocal of the highest dilution displaying a clear zone of inhibition that corresponds to 1 ml of the nondiluted supernatant.
Separation and purification by HPLC of the OSY-DF peptide. […] Elution was monitored at a wavelength of 220 nm, and fractions were collected manually for the antimicrobial activity bioassay. […]

Consider `C=C1NC(=O)C2CSC(C)C(NC(=O)C3CSC(C)C4NC(=O)[C@H](CC(C)C)NC(=O)C(NC(=O)[C@H](CCCCN)NC(=O)C5CSCC(NC(=O)[C@@H](NC(=O)[C@H](CCCCN)NC(=O)[C@@H](NC(=O)/C(=C/C)NC(=O)/C(=C/C)NC(=O)[C@H](CCCCN)NC(=O)[C@@H](NC(=O)[C@@H](NC(=O)C(=C)NC(=O)[C@H](C)NC(C)=O)[C@@H](C)CC)[C@@H](C)CC)[C@@H](C)CC)C(C)C)C(=O)N[C@@H](CCCCN)C(=O)N[C@@H](C)C(=O)N[C@@H](C(C)C)C(=O)N5)C(C)SCC(NC4=O)C(=O)N[C@@H]([C@@H](C)CC)C(=O)N3)C(=O)NCC(=O)NC(CSCC(C(=O)N[C@@H](CCCCN)C(=O)O)NC(=O)[C@H](CC(N)=O)NC1=O)C(=O)N2` (stereo partly drawn) [Paenibacillin, (CH3CO-^1A)-Dha-I-I-K-Dhb-Dhb-I-K-V-A-K-A-V-A-K-Abu-L-Abu-A-I-A-Abu-G-A-A-Dha-N-A-K^30], for which the solubility in water entry in the data set “solubility in water” is listed as “easy to dissolve”; in the data set “solubility in water” (listed as OSY-DF peptide) it was “readily soluble”.

With polymyxin E1, the “activity against Pseudomonas aeruginosa” value with Pseudomonas aeruginosa is “active”. Also, the “activity against Acinetobacter baumannii” value in the data set on Acinetobacter baumannii is listed as “active”. The “activity against gram-negative bacteria” value in the data set with gram-negative bacteria [1] is reported as “specifically active”; in the data set on gram-negative bacteria [2] it was “anti-gram-negative activity”.
